Laboratory results from US5914343A, “Compounds and methods for inhibiting hyper-proliferative cell growth” (Sugen, Inc., priority 1997, dated 1999).
Values after ≈ are worked out from the molar mass of the structure shown. Structures can show the parent of a compound that is named as a salt. Where two headings read alike, the source gives them in different places. One block for each compound: values may come before it.

Columns and labels:
mice (BALB/c) = assay: Toxicity studies (LD50, LD10, organ damage) in mice; type: in vivo
Experimental: (§1) Toxicity studies were carried out in animal models for AA10, AA12 and AA14. AA10 and AA12 were solubilized in DMSO and AA14 was dissolved in PBS (pH 7.4). The dosage resulting in a 50% mortality rate (LD50) and a 10% mortality rate (LD10) was determined as described below.
(§2) Five mice (BALB/c) were treated with different concentrations of compound. […] The LD50 was calculated from a plot of % mortality versus dose (log M) using a four parameter logistic equation.
(§3) At the end of the experiment an animal from each study administered with 100 mg/kg of compound was sacrificed and pathologically analyzed for organ damage.

[1] = as above; type: in vivo; settings: mouse, in vivo
Experimental: as §1, §2, §3

Solubility of compounds = type: physicochemical
C6 glioma cells = assay: In vivo tumor inhibition: subcutaneous Xenograft model with C6 glioma cells in mice; set-up: species or system mice (BALB/c, nu/nu); settings: for Inhibition of tumor growth (FIGS. 1, 2, and 3): IP injection, 15 mg/kg/day, AA10 and AA12 in DMSO, AA14 in PBS
Experimental: In vivo tumor inhibition was measured using a subcutaneous Xenograft model.
C6 cells were maintained in Ham's F10 supplemented with 10% fetal bovine serum (FBS) and 2 mM glutamine (GLN). Cells were harvested at or near confluence with 0.05% Trypsin-EDTA and pelleted at 450×g for 10 min. Pellets were resuspended in sterile PBS or media (without FBS) to a particular concentration and the cells were implanted into the hindflank of mice. Tumor growth was measured over 3 to 6 weeks using venier calipers. Tumor volumes were calculated as a product of length x width x height unless otherwise indicated. AA10 and AA12 were solubilized in 50-100 μL vehicle (DMSO) while AA14 was dissolved in PBS (pH 7.4). The compounds were delivered by IP injection at 15 mg/kg/day.
The compound was dissolved in phosphate buffered saline and the animals were treated with 30 mg/kg/day and 50 mg/kg/day.

C6 cells = assay: In vitro tumor inhibition: anchorage-dependent C6 cell growth assay (sulforhodamine B); type: cell-based; settings: for IC50: Rattus norvegicus, C6 cells, 2000 cells/well, 4 days, 37° C., SRB stain
Experimental: The assay measures protein content of acid-fixed cells using the counterion binding dye sulforhodamine B (SRB, Sigma).
AA10 and AA12 were solubilized in DMSO (Sigma, cell culture grade), and AA14 was dissolved in PBS (pH 7.4), the compounds were diluted into appropriate growth medium at two-fold the desired final assay concentration.
Compound (100 μL) was added to 96-well plates containing attached cellular monolayers C6 cells (2000 cells/well in 100 μL). After 4 days (37° C., 5% CO2) the monolayers were washed 3 times with PBS and fixed with 200 μL ice-cold 10% trichloroacetic acid (TCA) (Fisher Scientific), and kept at 4° C. for 60 minutes. The TCA was removed and the fixed monolayers were washed 5 times with tap water and allowed to dry completely at room temperature on absorbent paper. The cellular protein was stained for 10 min with 100 μL 0.4% SRB dissolved in 1% acetic acid. After 5 washes with tap water, the dye was solubilized in 10 mM Tris base (100 μL per well) and absorbance read at 570 nm on a Dynatech plate reader model MR5000. Growth inhibition data are expressed as aL percentage of absorbance detected in control wells which were treated with 0.4% DMSO or PBS alone. […] IC50 values were determined using a four parameter curve fit function.

[2] = Stability compared with leflunomide; type: physicochemical
[3] = tested on: autoimmune animal diseases; settings: Bartlett R. R. et al., Agents and Actions 32:10-21 (1991); cited from earlier work
[4] = mice (BALB/c), observed 7 to 14 days after last dose, AA10 and AA12 in DMSO, AA14 in PBS
[5] = organic solvent or mixture, in DMSO, read-out: Solubility in DMSO

Structure (SMILES): CC(O)=C(C#N)C(=S)Nc1ccc(C(F)(F)F)cc1.[Na]
LD10 (mice (BALB/c); mouse, in vivo): 120 mg/kg | LD50 [1]: 145 mg/kg | Solubility in PBS (in words) (Solubility of compounds; AA14 compared with leflunomide and its hydroxycrotonamide metabolite): soluble in PBS | solubility (Solubility of compounds; aqueous buffer, in PBS (phosphate buffered saline at pH 7.4), read-out: Solubility in PBS): 275 mg/mL | Tumor inhibition at higher AA14 concentrations (FIG. 4) (C6 glioma cells; 30 mg/kg/day and 50 mg/kg/day in phosphate buffered saline): increased tumor inhibition | Inhibition of tumor growth (FIGS. 1, 2, and 3) (C6 glioma cells): inhibit tumor growth

Structure (SMILES): Cc1oncc1C(=S)Nc1ccc(C(F)(F)F)cc1 [AA10, 5-Methyl-4-(4-trifluoromethylphenyl)aminothiocarbonylisoxazole]
LD10 (mice (BALB/c); [4]): 77 mg/kg | LD50 [1, 4]: 96 mg/kg | Inhibition of hyper-proliferative cell growth (in words) (C6 cells): able to inhibit hyper-proliferative cell growth | IC50 (C6 cells; 96 h): 2 µM | Solubility in ethanol compared with leflunomide (Solubility of compounds; in ethanol): more soluble in ethanol | solubility (Solubility of compounds; [5]): ≥ 1000 mg/mL | Inhibition of tumor growth (FIGS. 1, 2, and 3) (C6 glioma cells): inhibit tumor growth | Stability compared with leflunomide [2]: appears to be more stable than leflunomide

Structure (SMILES): CC(O)=C(C#N)C(=S)Nc1ccc(C(F)(F)F)cc1 [AA12, 1-Cyano-2-hydroxy-1-(4-trifluoromethylphenyl)aminothiocarbonylpropene]
LD10 (mice (BALB/c); [4]): 62 mg/kg | LD50 [1, 4]: 79 mg/kg | Inhibition of hyper-proliferative cell growth (in words) (C6 cells): able to inhibit hyper-proliferative cell growth | IC50 (C6 cells; 96 h): 0.8 µM | solubility (Solubility of compounds; [5]): 400 mg/mL (≈ 1400 mM) | Inhibition of tumor growth (FIGS. 1, 2, and 3) (C6 glioma cells): inhibit tumor growth

Structure (SMILES): CC(O)=C(C#N)S(=O)(=O)Nc1ccc(C(F)(F)F)cc1 [AA17, 1-Cyano-2-hydroxy-1-(4-trifluoromethylphenylaminosulfonyl)propene]
IC50 (C6 cells; 96 h): 30 µM

Structure (SMILES): CC(O)=C(C#N)S(=O)(=O)Nc1ccc(C(F)(F)F)cc1 [AA18, 1-cyano-2-hydroxy-1-(4-trifluoromethylphenylaminosulfonyl)propene sodium salt]
IC50 (C6 cells; C6, 96 h): 24 µM

IC50 (C6 cells; 96 h): < 1 µM
Structure (SMILES): N#CC(C(=S)Nc1ccc(C(F)(F)F)cc1)=C(O)C1CC1 [Compound 3, 3-cyclopropyl-3-hydroxy-2-[(4-trifluoromethylphenyl)aminothiocarbonyl]acrylonitrile]

IC50 (C6 cells; 96 h): 31.2 µM
Structure (SMILES): C=C(C)C(O)=C(C#N)C(=S)Nc1ccc(C(F)(F)F)cc1 [Compound 6, 3-hydroxy-3-(propen-2-yl)-2-[[4-(trifluoro-methyl)-phenyl]aminothiocarbonyl]acrylonitrile]

IC50 (C6 cells; 96 h): 36.7 µM
Structure (SMILES): CC(O)=C(C#N)C(=S)Nc1ccc(F)cc1Br [Compound 7, 3-hydroxy-3-methyl-2-[(2-bromo-4-fluorophenyl)aminothiocarbonyl]acrylonitrile]

IC50 (C6 cells; 96 h): > 100 µM
Structure (SMILES): CC(O)=C(C#N)C(=S)Nc1ccccc1C(F)(F)F [Compound 12, 3-hydroxy-3-methyl-2-[[2-(trifluoromethyl)-phenyl]aminothiocarbonyl]acrylonitrile]

IC50 (C6 cells; 96 h): 15.2 µM
Structure (SMILES): CC(O)=C(C#N)C(=S)Nc1cccc(C(F)(F)F)c1 [Compound 17, 3-hydroxy-3-methyl-2-[[3-(trifluoromethyl)phenyl]aminothiocarbonyl]acrylonitrile]

IC50 (C6 cells; 96 h): 24.3 µM
Structure (SMILES): CC(O)=C(C#N)C(=S)Nc1ccc(S(=O)(=O)N2CCCCC2)cc1 [Compound 22, 3-hydroxy-3-methyl-2-[[4-(piperidine-1-sulfonyl)-phenyl]aminothiocarbonyl]acrylonitrile]

IC50 (C6 cells; 96 h): > 20 µM
Structure (SMILES): CC(O)=C(C#N)C(=S)Nc1ccc(S(N)(=O)=O)cc1 [Compound 27, 3-hydroxy-3-methyl-2-[[4-(aminosulfonyl)phenyl]aminothiocarbonyl]acrylonitrile]

IC50 (C6 cells; 96 h): 35.3 µM
Structure (SMILES): CC(O)=C(C#N)C(=S)Nc1cccc(Cl)c1Cl [Compound 32, 3-hydroxy-3-methyl-2-[(2,3-dichlorophenyl)aminothiocarbonyl]acrylonitrile]

IC50 (C6 cells; 96 h): 6.1 µM
Structure (SMILES): CC(O)=C(C#N)C(=S)Nc1ccc(Cl)c(Cl)c1 [Compound 37, 3-hydroxy-3-methyl-2-[(3,4-dichlorophenyl)-aminothiocarbonyl]acrylonitrile]

IC50 (C6 cells; 96 h): 53.3 µM
Structure (SMILES): CC(O)=C(C#N)C(=S)Nc1ccc(Cl)cc1Cl [Compound 42, 3-hydroxy-3-methyl-2-[(2,4-dichlorophenyl)aminothiocarbonyl]acrylonitrile]

Structure (SMILES): Cc1oncc1C(=O)Nc1ccc(C(F)(F)F)cc1 [leflunomide, 5-methylisoxazole-4 carboxylic acid-(4-trifluromethyl)-anilide, reference compound]
Preventing and curing autoimmune animal diseases [3]: very effective in preventing and curing several autoimmune animal diseases
